Reference: US4603128A, “Mineralocorticoid hormone antagonists” (priority 1984, dated 1986)
Read-outs that look alike come from different tables or passages of the source.

What was measured:
adrenalectomized rat = assay: Mineralocorticoid antagonism in vivo, adrenalectomized rat assay (urinary Na/K); settings: for In vivo antagonist activity compared with corresponding 7α-propionylthio derivative (Controls A, B, C, D): same substituents at C-21
Protocol: The bioassay for anti-mineralocorticoid activity was carried out as described for the assay of mineralocorticoid agonist activity by Ulick, Land and Chu, (Endocrinology 99:619, 1976), except that the control group received 1 μg of aldosterone per 100 g body weight and the experimental group received the test substance in addition. All results were expressed as ratio of control urinary Na/K to treatment urinary Na/K. The minimum effective dose of antagonist was defined as that amount of test substance required to block one-half of the effect of 1 μg. aldosterone/100 g body weight as measured by the ratio of control: treatment urinary Na/K.

[1] = tested on: mineralocorticoid receptor of mammalian kidney; assay: Mineralocorticoid receptor affinity (competition with 3H-aldosterone); assay type: binding; settings: for Corticosteroid Receptor Affinity % Mineralocorticoid: amount of aldosterone vs amount of steroid for 50% reduction in binding of 1.3×10^-9 M 3H-aldosterone, kidney cytosol, aldosterone = 100; for Affinity Mineralocorticoid:Androgen Ratio: ratio of mineralocorticoid to androgen receptor affinity (therapeutic index)
Protocol: Each assay tube contained 250 μl cytosol solution and 1,2-^3 H-aldosterone at a final steroid concentration of 1.3×10^-9 M. Standard curves were prepared in the range of 0.1 to 100 ng aldosterone and non-specific binding of 10^-5 M aldosterone was subtracted. The amount of steroid ligand required to effect 50% reduction in the binding of labeled aldosterone compared to the amount of aldosterone to effect the same reduction was expressed as a percentage.

[2] = Rattus norvegicus, sc, subcutaneous, with 1 μg aldosterone per 100 g body weight, dose reducing urinary Na/K effect to one half, inactive = no antagonist activity at 250 μg/100 g, read-out: Mineralocorticoid antagonism Minimum effective dose
[3] = oral route, adrenalectomized rat, read-out: Mineralocorticoid antagonism Minimum effective dose oral
[4] = subcutaneous, with 1 μg aldosterone per 100 g body weight, dose reducing urinary Na/K effect to one half, inactive = no antagonist activity at 250 μg/100 g

Row | Compound | ED50 (adrenalectomized rat; [2]) | Corticosteroid Receptor Affinity % Mineralocorticoid [1] | Affinity Mineralocorticoid:Androgen Ratio [1] | also measured
1 | CCC(=O)S[C@@H]1CC2=CC(=O)CC[C@]2(C)[C@H]2CC[C@]3(C)[C@@H](C(C)=O)CC[C@H]3[C@H]12 [Control A, 7α-Propionylthio-4-pregnene-3,20-dione, reference compound] | 2 mg/kg | – | – | –
2 | CC(=O)S[C@@H]1CC2=CC(=O)CC[C@]2(C)[C@H]2CC[C@]3(C)[C@@H](C(=O)COC(=O)C(C)(C)C)CC[C@H]3[C@H]12 [Example 8] | 0.75 mg/kg | 45% | 300 | –
3 | CC(=O)OCC(=O)[C@H]1CC[C@H]2[C@@H]3[C@H](SC(C)=O)CC4=CC(=O)CC[C@]4(C)[C@H]3CC[C@]12C [Example 3, 7α-Acetylthio-21-acetoxy-4-pregnene-3,20-dione] | 0.25 mg/kg | 65% | 325 | Affinity ratio index compared with spironolactone ([1]; mineralocorticoid:androgen affinity ratio relative to spironolactone): ~40 times; Dose of spironolactone relative to compound required for equivalent mineralocorticoid antagonist effect, oral (adrenalectomized rat; oral route): four-fold; ED50 (adrenalectomized rat; [3]): 2.5 mg/kg; In vivo antagonist activity compared with corresponding 7α-propionylthio derivative (Controls A, B, C, D) (adrenalectomized rat): always more active; Effectiveness relative to spironolactone, subcutaneous (adrenalectomized rat; subcutaneous route): 10 times; Mineralocorticoid antagonism Minimum effective dose (adrenalectomized rat; [4]): 25 μg/100 g
4 | CC(=O)S[C@@H]1CC2=CC(=O)CC[C@]2(C)[C@H]2CC[C@@]3(C)[C@@H](CC[C@@]34CCC(=O)O4)[C@H]12 [Spironolactone, spironolactone, reference compound] | 2.5 mg/kg | 18% | – | ED50 (adrenalectomized rat; [3]): 10 mg/kg; Mineralocorticoid antagonism Minimum effective dose (adrenalectomized rat; [4]): 250 μg/100 g
5 | CCCC(=O)OCC(=O)[C@H]1CC[C@H]2[C@@H]3[C@H](SC(=O)CC)CC4=CC(=O)CC[C@]4(C)[C@H]3CC[C@]12C [Control C, 7α-Propionylthio-21-butyroxy-4-pregnene-3,20-dione, reference compound] | 1.5 mg/kg | – | – | –
6 | CC(=O)OCC(=O)[C@@]1(O)CC[C@H]2[C@H]3[C@H]([C@@H](O)C[C@@]21C)[C@@]1(C)CCC(=O)C=C1C[C@H]3SC(C)=O [Control E, 7α-Acetylthio-21-acetoxy-11β-dihydroxy-4-pregnene-3,20-dione, reference compound] | – | – | – | Mineralocorticoid antagonism Minimum effective dose (adrenalectomized rat; [4]): inactive
7 | CCC(=O)S[C@@H]1CC2=CC(=O)CC[C@]2(C)[C@H]2CC[C@]3(C)[C@@H](C(=O)COC(C)=O)CC[C@H]3[C@H]12 [Control B, 7α-Propionylthio-21-acetoxy-4-pregnene-3,20-dione, reference compound] | 1 mg/kg | – | – | –
8 | C[C@]12CCC(=O)C=C1CC[C@@H]1[C@@H]2[C@@H](O)C[C@]2(C=O)[C@@H](C(=O)CO)CC[C@@H]12 [Aldosterone, reference compound] | – | 100% | – | –
9 | CCCCCCC(=O)OCC(=O)[C@H]1CC[C@H]2[C@@H]3[C@H](SC(C)=O)CC4=CC(=O)CC[C@]4(C)[C@H]3CC[C@]12C [Example 7] | 0.75 mg/kg | 27% | 180 | In vivo antagonist activity compared with corresponding 7α-propionylthio derivative (Controls A, B, C, D) (adrenalectomized rat): always more active
10 | CCCCCCC(=O)OCC(=O)[C@H]1CC[C@H]2[C@@H]3[C@H](SC(=O)CC)CC4=CC(=O)CC[C@]4(C)[C@H]3CC[C@]12C [Control D, 7α-Propionylthio-21-heptanoyloxy-4-pregnene-3,20-dione, reference compound] | – | – | – | Mineralocorticoid antagonism Minimum effective dose (adrenalectomized rat; [4]): inactive
11 | CC(=O)S[C@@H]1CC2=CC(=O)CC[C@]2(C)[C@H]2CC[C@]3(C)[C@@H](C(=O)CO)CC[C@H]3[C@H]12 [Example 2, 7α-Acetylthio-21-hydroxy-4-pregnene-3,20-dione] | 0.75 mg/kg | 35% | 175 | –
12 | CCC(=O)OCC(=O)[C@H]1CC[C@H]2[C@@H]3[C@H](SC(C)=O)CC4=CC(=O)CC[C@]4(C)[C@H]3CC[C@]12C [Example 4] | 1 mg/kg | 38% | 190 | –
13 | CCCCC(=O)OCC(=O)[C@H]1CC[C@H]2[C@@H]3[C@H](SC(C)=O)CC4=CC(=O)CC[C@]4(C)[C@H]3CC[C@]12C [Example 6] | 1.5 mg/kg | 68% | 340 | –
14 | CC(=O)S[C@@H]1CC2=CC(=O)CC[C@]2(C)[C@H]2CC[C@]3(C)[C@@H](C(C)=O)CC[C@H]3[C@H]12 [Example 1, 7α-Acetylthio-4-pregnene-3,20-dione] | 1 mg/kg | 43% | 172 | In vivo antagonist activity compared with corresponding 7α-propionylthio derivative (Controls A, B, C, D) (adrenalectomized rat): always more active
15 | CCCC(=O)OCC(=O)[C@H]1CC[C@H]2[C@@H]3[C@H](SC(C)=O)CC4=CC(=O)CC[C@]4(C)[C@H]3CC[C@]12C [Example 5] | 0.5 mg/kg | 60% | 300 | In vivo antagonist activity compared with corresponding 7α-propionylthio derivative (Controls A, B, C, D) (adrenalectomized rat): always more active
